Reference: paper PMC10258912, “Synthesis and Molecular Docking of New N-Acyl Hydrazones-Benzimidazole as hCA I and II Inhibitors” (Medicinal Chemistry (Shariqah (United Arab Emirates), 2023)
Where two headings read alike, the source gives them in different places.

Tests used:
hCA I = target: T1, hCA I (Homo sapiens, UniProt P00915); experiment: hCA I hydratase activity inhibition assay (Wilbur-Anderson method); format: biochemical; details: for Ki: Cheng-Prusoff equation
T1 construct: made in house
T1 sequence (P00915 whole entry): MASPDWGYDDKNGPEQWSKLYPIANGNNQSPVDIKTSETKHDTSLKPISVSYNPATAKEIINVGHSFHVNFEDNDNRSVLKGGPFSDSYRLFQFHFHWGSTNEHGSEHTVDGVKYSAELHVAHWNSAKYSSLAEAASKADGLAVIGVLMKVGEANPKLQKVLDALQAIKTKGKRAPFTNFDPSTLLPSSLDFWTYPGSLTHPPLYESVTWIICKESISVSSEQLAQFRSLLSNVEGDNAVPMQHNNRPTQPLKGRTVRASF
Procedure: (§1) Purification of hCA I and hCA II by affinity chromatography was performed as described in the previous work.
(§2) The Wilbur-Anderson method, as modified by Wilber et al., was used to calculate CA activity. With the help of a bromothymol blue indicator and a measurement of the passing time, the pH changes were calculated using this approach, which causes the hydration of CO2 to release H^+ ions. The equation (to-tc/tc), where to and tc are the times for pH change of the enzymatic and nonenzymatic processes, respectively, was used to compute the enzyme unit (EU).
(§3) While keeping the concentration of the substrate constant, IC50 values for the various compounds were computed. Enzyme activities in the absence of inhibitors in the medium were taken as 100% activity. By assessing the hydratase activity in the presence of various inhibitor concentrations, the activity % values of enzymes were calculated. Utilizing graphs of activity %-[I] for each inhibitor, the IC50 value was determined. The Cheng-Prusoff equation was used to derive inhibition constants using the nonlinear least squares method.

hCA II = target: T2, hCA II (Homo sapiens, UniProt P00918); experiment: hCA II hydratase activity inhibition assay (Wilbur-Anderson method); format: biochemical; details: for relative inhibitory activity hCA II versus hCA I: comparison of IC50 values on hCA I and hCA II
T2 construct: made in house
Procedure: as §1, §2, §3

[1] = hydratase activity, constant substrate concentration, read-out: IC50 hCA I

IC50 (hCA I; [1])	Compound	relative inhibitory activity hCA II versus hCA I (hCA II)	other results
1680 nM	Cc1ccc(C=NNC(=O)c2ccc(-c3nc4ccccc4[nH]3)cc2)cc1 [Compound 3p, 4-(1H-benzimidazole-2-yl)-N’-(4-methylbenzyli-dene) benzohydrazide]		type of inhibition, hCA I (hCA I): noncompetitive; Ki (hCA I): 299 ± 10 nM
1950 nM	O=C(NN=Cc1ccc(OCc2ccccc2)cc1)c1ccc(-c2nc3ccccc3[nH]2)cc1 [Compound 3j, 4-(1H-benzimidazole-2-yl)-N’-(4-(benzyloxy)benzylidene)benzohydrazide]		
2720 nM	O=C(NN=Cc1ccc(F)cc1)c1ccc(-c2nc3ccccc3[nH]2)cc1 [Compound 3l, 4-(1H-benzimidazole-2-yl)-N’-(4-fluorobenzylidene)benzohydrazide]	fairly close inhibitory properties on hCA I and hCA II	IC50 (hCA II; hydratase activity, constant substrate concentration): 2740 nM
1870 nM	CC(C)c1ccc(C=NNC(=O)c2ccc(-c3nc4ccccc4[nH]3)cc2)cc1 [Compound 3d, 4-(1H-benzimidazole-2-yl)-N’-(4-isopropylbenzylidene)benzohydrazide]		

The next lines start with the compound.

Compound	IC50 (hCA I; [1])	relative inhibitory activity hCA II versus hCA I (hCA II)	other results
N-(1H-benzimidazole-2-yl)-N’-benzylidenebenzo hydrazide [Compound 3a]		more inhibitory activity on hCA II than hCA I	
CCOc1ccc(C=NNC(=O)c2ccc(-c3nc4ccccc4[nH]3)cc2)cc1 [Compound 3i, 4-(1H-benzimidazole-2-yl)-N’-(4-ethoxybenzylidene) benzohydrazide]		more inhibitory activity on hCA II than hCA I	
COc1ccc(C=NNC(=O)c2ccc(-c3nc4ccccc4[nH]3)cc2)cc1 [Compound 3k, 4-(1H-benzimidazole-2-yl)-N’-(4-methoxybenzylidene)benzohydrazide]		more inhibitory activity on hCA II than hCA I	
CCN(CC)c1ccc(C=NNC(=O)c2ccc(-c3nc4ccccc4[nH]3)cc2)cc1 [Compound 3c, 4-(1H-benzimidazole-2-yl)-N’-(4-(diethylamino)benzylidene)benzohydrazide]			IC50 (hCA I): 2090 nM
O=C(NN=Cc1ccc([N+](=O)[O-])cc1)c1ccc(-c2nc3ccccc3[nH]2)cc1 [Compound 3n, 4-(1H-benzimidazole-2-yl)-N’-(4-nitrobenzylidene) benzohydrazide]		more inhibitory activity on hCA II than hCA I	Ki (hCA I): 956 nM
